Data reported in patent publication US12441703B2, “Carboxamides as modulators of sodium channels” (VERTEX PHARMACEUTICALS INCORPORATED, priority 2019, dated 2025).

Molecular target: human NaV 1.8 (Homo sapiens, UniProt Q9Y5Y9)
Test: E-VIPR assay for detecting and measuring NaV inhibition properties
Assay type: cell-based
Conditions: E-VIPR assay conducted in the presence of human serum; HEK cells expressing truncated human NaV 1.8; read-out: IC50
In short: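 HEK cells with truncated human NaV1.8 plus KIR2.1 BacMam, hexyl dye loaded 20 min, compound 30 min at room temperature, 11-point 3-fold series […], 0.625% DMSO, with or without human serum. E-VIPR biphasic stimulation at 10 Hz for 10 s; membrane-potential response read as normalized coumarin/oxonol ratio.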

Chain of human NaV 1.8 (Q9Y5Y9 whole entry, looked up): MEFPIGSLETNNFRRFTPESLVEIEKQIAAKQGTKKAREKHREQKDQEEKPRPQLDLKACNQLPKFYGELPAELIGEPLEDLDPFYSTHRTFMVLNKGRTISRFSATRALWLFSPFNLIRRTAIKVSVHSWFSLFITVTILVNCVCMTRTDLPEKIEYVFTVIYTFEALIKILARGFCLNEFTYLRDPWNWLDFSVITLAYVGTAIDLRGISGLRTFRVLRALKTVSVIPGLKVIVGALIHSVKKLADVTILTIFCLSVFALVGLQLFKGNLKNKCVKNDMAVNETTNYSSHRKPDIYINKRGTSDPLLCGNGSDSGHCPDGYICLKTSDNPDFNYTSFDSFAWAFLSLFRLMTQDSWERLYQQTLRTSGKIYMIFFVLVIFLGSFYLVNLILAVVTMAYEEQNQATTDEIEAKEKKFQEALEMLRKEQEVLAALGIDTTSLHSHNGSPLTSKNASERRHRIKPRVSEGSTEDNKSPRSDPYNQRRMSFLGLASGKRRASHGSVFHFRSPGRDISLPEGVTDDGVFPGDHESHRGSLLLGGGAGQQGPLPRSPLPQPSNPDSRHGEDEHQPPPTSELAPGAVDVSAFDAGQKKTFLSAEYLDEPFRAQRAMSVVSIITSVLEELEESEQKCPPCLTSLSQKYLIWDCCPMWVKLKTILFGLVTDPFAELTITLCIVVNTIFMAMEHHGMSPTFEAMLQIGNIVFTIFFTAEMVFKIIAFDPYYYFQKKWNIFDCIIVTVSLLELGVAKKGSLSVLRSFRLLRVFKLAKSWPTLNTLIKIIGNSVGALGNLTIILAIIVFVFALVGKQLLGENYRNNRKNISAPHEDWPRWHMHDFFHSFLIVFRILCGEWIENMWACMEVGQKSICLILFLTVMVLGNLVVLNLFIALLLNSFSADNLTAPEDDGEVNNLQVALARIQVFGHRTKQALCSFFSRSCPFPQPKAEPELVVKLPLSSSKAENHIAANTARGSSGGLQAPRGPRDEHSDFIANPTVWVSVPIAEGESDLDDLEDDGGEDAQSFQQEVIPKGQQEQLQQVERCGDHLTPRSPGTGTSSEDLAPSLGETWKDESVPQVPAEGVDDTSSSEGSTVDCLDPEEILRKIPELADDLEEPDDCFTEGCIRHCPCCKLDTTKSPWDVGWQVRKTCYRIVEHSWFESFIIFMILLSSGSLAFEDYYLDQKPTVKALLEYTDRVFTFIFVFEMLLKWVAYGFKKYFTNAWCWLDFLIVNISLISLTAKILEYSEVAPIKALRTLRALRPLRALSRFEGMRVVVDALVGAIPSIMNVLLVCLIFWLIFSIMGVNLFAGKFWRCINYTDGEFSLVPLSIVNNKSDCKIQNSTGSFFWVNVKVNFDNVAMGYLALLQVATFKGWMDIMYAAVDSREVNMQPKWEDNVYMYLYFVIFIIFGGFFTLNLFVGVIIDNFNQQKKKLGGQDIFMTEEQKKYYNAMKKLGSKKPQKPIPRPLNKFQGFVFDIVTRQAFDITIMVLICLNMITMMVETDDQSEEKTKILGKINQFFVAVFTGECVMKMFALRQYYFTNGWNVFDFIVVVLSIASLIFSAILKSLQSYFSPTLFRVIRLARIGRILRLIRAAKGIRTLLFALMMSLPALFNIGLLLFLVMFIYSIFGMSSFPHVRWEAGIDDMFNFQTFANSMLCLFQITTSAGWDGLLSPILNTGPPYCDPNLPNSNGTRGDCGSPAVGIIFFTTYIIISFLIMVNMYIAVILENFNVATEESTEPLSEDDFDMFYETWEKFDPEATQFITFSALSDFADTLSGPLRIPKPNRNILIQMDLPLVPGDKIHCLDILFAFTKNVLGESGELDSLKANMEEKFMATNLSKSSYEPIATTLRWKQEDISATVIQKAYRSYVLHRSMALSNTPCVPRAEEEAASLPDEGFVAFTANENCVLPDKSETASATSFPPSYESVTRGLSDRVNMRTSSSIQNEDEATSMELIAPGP

Compared with `[2H]C([2H])([2H])Oc1cc(OC(F)(F)F)ccc1Oc1cc(C2=CCCC2)cc(F)c1C(=O)Nc1ccnc(C(N)=O)c1` [Compound 1010, 4-[[4-(cyclopenten-1-yl)-2-fluoro-6-[2-(trideuteriomethoxy)-4-(trifluoromethoxy)phenoxy]benzoyl]amino]pyridine-2-carboxamide], `[2H]C([2H])([2H])Oc1cc(OC(F)(F)F)ccc1Oc1cc(C#CC2CCC2)cc(F)c1C(=O)Nc1ccnc(C(N)=O)c1` [Compound 1024] is 12-fold higher in IC50: 13 nM for the first, 150 nM for the second.

First: [2H]C([2H])([2H])Oc1cc(OC(F)(F)F)ccc1Oc1cc(-c2cccc(C#N)c2)cc(F)c1C(=O)Nc1ccnc(C(N)=O)c1 [Compound 1011, 4-[[4-(3-cyanophenyl)-2-fluoro-6-[2-(trideuteriomethoxy)-4-(trifluoromethoxy)phenoxy]benzoyl]amino]pyridine-2-carboxamide]
Second: [2H]C([2H])([2H])Oc1cc(OC(F)(F)F)ccc1Oc1cc(-c2ccc(C#N)cc2)cc(F)c1C(=O)Nc1ccnc(C(N)=O)c1 [Compound 1012, 4-[[4-(4-cyanophenyl)-2-fluoro-6-[2-(trideuteriomethoxy)-4-(trifluoromethoxy)phenoxy]benzoyl]amino]pyridine-2-carboxamide]
The IC50 of the first is 2.5-fold higher: 470 nM for the first, 190 nM for the second. The second is the more potent here.

First: COc1cc(OC(F)(F)F)ccc1Oc1cc(C2=CCC(C(F)(F)F)CC2)cc(F)c1C(=O)Nc1ccnc(C(N)=O)c1 (centres unmarked) [Compound 1013, 4-[[2-fluoro-6-[2-methoxy-4-(trifluoromethoxy)phenoxy]-4-[4-(trifluoromethyl)cyclohexen-1-yl]benzoyl]amino]pyridine-2-carboxamide]
Second: COc1cc(OC(F)(F)F)ccc1Oc1cc(C2=CCC(C(C)(C)C)CC2)cc(F)c1C(=O)Nc1ccnc(C(N)=O)c1 (centres unmarked) [Compound 1016, 4-[[4-(4-tert-butylcyclohexen-1-yl)-2-fluoro-6-[2-methoxy-4-(trifluoromethoxy)phenoxy]benzoyl]amino]pyridine-2-carboxamide]
The IC50 of the first is 4.6-fold lower: 13 nM for the first, 60 nM for the second. The first is the more potent here.

Compared with `COc1cc(OC(F)(F)F)ccc1Oc1cc(C2=CC3CCC2C3)cc(F)c1C(=O)Nc1ccnc(C(N)=O)c1` (centres unmarked) [Compound 1014, 4-[[4-(2-bicyclo[2.2.1]hept-2-enyl)-2-fluoro-6-[2-methoxy-4-(trifluoromethoxy)phenoxy]benzoyl]amino]pyridine-2-carboxamide], `COc1cc(OC(F)(F)F)ccc1Oc1cc(C2CC3CCC2C3)cc(F)c1C(=O)Nc1ccnc(C(N)=O)c1` (centres unmarked) [Compound 1020, 4-[[2-fluoro-6-[2-methoxy-4-(trifluoromethoxy)phenoxy]-4-norboman-2-yl-benzoyl]amino]pyridine-2-carboxamide] is 3.7-fold lower in IC50: 33 nM for the first, 9 nM for the second. The second is the more potent here.

Compared with `COc1cc(OC(F)(F)F)ccc1Oc1cc(C2=CCC3(CC2)OCCO3)cc(F)c1C(=O)Nc1ccnc(C(N)=O)c1` [Compound 1015, 4-[[4-(1,4-dioxaspiro[4.5]dec-7-en-8-yl)-2-fluoro-6-[2-methoxy-4-(trifluoromethoxy)phenoxy]benzoyl]amino]pyridine-2-carboxamide], `COc1cc(OC(F)(F)F)ccc1Oc1cc2c(c(F)c1C(=O)Nc1ccnc(C(N)=O)c1)OCCO2` [Compound 1035] is 21-fold lower in IC50: 360 nM for the first, 17 nM for the second. The second is the more potent here.

First: [2H]C([2H])([2H])Oc1cc(OC(F)(F)F)ccc1Oc1cc(C2CCOC2)cc(F)c1C(=O)Nc1ccnc(C(N)=O)c1 (centres unmarked) [Compound 1018, 4-[[2-fluoro-4-tetrahydrofuran-3-yl-6-[2-(trideuteriomethoxy)-4-(trifluoromethoxy)phenoxy]benzoyl]amino]pyridine-2-carboxamide]
Second: [2H]C([2H])([2H])Oc1cc(OC(F)(F)F)ccc1Oc1cc(C2CCOCC2)cc(F)c1C(=O)Nc1ccnc(C(N)=O)c1 [Compound 1019, 4-[[2-fluoro-4-tetrahydropyran-4-yl-6-[2-(trideuteriomethoxy)-4-(trifluoromethoxy)phenoxy]benzoyl]amino]pyridine-2-carboxamide]
The IC50 of the first is 1.6-fold higher: 130 nM for the first, 79 nM for the second.

Compared with `[2H]C([2H])([2H])Oc1cc(OC(F)(F)F)ccc1Oc1cc(C#CCC(C)C)cc(F)c1C(=O)Nc1ccnc(C(N)=O)c1` [Compound 1021, 4-[[2-fluoro-4-(4-methylpent-1-ynyl)-6-[2-(trideuteriomethoxy)-4-(trifluoromethoxy)phenoxy]benzoyl]amino]pyridine-2-carboxamide], `[2H]C([2H])([2H])Oc1cc(OC(F)(F)F)ccc1Oc1cc(C#CC(C)(C)C)cc(F)c1C(=O)Nc1ccnc(C(N)=O)c1` [Compound 1022] is 4.6-fold higher in IC50: 41 nM for the first, 190 nM for the second.

First: [2H]C([2H])([2H])Oc1cc(OC(F)(F)F)ccc1Oc1cc(C#CC2CC2)cc(F)c1C(=O)Nc1ccnc(C(N)=O)c1 [Compound 1023]
Second: [2H]C([2H])([2H])Oc1cc(OC(F)(F)F)ccc1Oc1cc2c(cc1C(=O)Nc1ccnc(C(N)=O)c1)OCCO2 [Compound 1036, 4-[[6-[2-(trideuteriomethoxy)-4-(trifluoromethoxy)phenoxy]-2,3-dihydro-1,4-benzodioxine-7-carbonyl]amino]pyridine-2-carboxamide]
The IC50 of the first is 18-fold lower: 100 nM for the first, 1750 nM for the second. The first is the more potent here.

Compared with `COc1cc(OC(F)(F)F)ccc1Oc1ccc(C(F)(F)F)c(SC)c1C(=O)Nc1ccnc(C(N)=O)c1` [Compound 1025, 4-[[6-[2-methoxy-4-(trifluoromethoxy)phenoxy]-2-methylsulfanyl-3-(trifluoromethyl)benzoyl]amino]pyridine-2-carboxamide], `COc1cc(OC(F)(F)F)ccc1Oc1ccc(C(F)(F)F)c(OCCN(C)C)c1C(=O)Nc1ccnc(C(N)=O)c1` [Compound 1027] is higher in IC50: 2 nM for the first, greater than 3000 nM for the second.

`COc1cc(OC(F)(F)F)ccc1Oc1ccc(C(F)(F)F)c(OCCC2CC2)c1C(=O)Nc1ccnc(C(N)=O)c1` [Compound 1028] and `COc1cc(OC(F)(F)F)ccc1Oc1cc(C2=CCC(C(F)(F)F)CC2)ccc1C(=O)Nc1ccnc(C(N)=O)c1` (centres unmarked) [Compound 1029, 4-[[2-[2-methoxy-4-(trifluoromethoxy)phenoxy]-4-[4-(trifluoromethyl)cyclohexen-1-yl]benzoyl]amino]pyridine-2-carboxamide] are within 1.5-fold of each other in IC50: 590 nM for the first, 695 nM for the second.

First: COc1cc(OC(F)(F)F)ccc1Oc1cc(C2=CCOC2)ccc1C(=O)Nc1ccnc(C(N)=O)c1 [Compound 1030]
Second: COc1cc(OC(F)(F)F)ccc1Oc1cc(C2=CCC(C(F)(F)F)CC2)ccc1C(=O)Nc1ccnc(C(N)=O)c1 (centres unmarked) [Compound 1031]
The IC50 of the first is 6.2-fold lower: 330 nM for the first, 2050 nM for the second. The first is the more potent here.

Going from `COc1cc(OC(F)(F)F)ccc1Oc1cc(C2CCOC2)ccc1C(=O)Nc1ccnc(C(N)=O)c1` (centres unmarked) [Compound 1033] to `COc1cc(OC(F)(F)F)ccc1Oc1cc(OC2C=C(F)C2)cc(C)c1C(=O)Nc1ccnc(C(N)=O)c1` (centres unmarked) [Compound 1038, 4-[[4-(3-fluorocyclobut-2-en-1-yl)oxy-2-[2-methoxy-4-(trifluoromethoxy)phenoxy]-6-methyl-benzoyl]amino]pyridine-2-carboxamide], the IC50 falls from 840 nM to 170 nM (4.9-fold). The second is the more potent here.

Compared with `COc1cc(OC(F)(F)F)ccc1Oc1cc2c(c(F)c1C(=O)Nc1ccc(C(N)=O)nc1)OCCO2` [Compound 1034, 5-[[5-fluoro-7-[2-methoxy-4-(trifluoromethoxy)phenoxy]-2,3-dihydro-1,4-benzodioxine-6-carbonyl]amino]pyridine-2-carboxamide], `[2H]C([2H])([2H])Oc1cc(OC(F)(F)F)ccc1Oc1cc2c(cc1C(=O)Nc1ccc(C(N)=O)nc1)OCCO2` [Compound 1037] is higher in IC50: 160 nM for the first, greater than 3000 nM for the second.

Going from `[2H]C([2H])([2H])Oc1cc(OC(F)(F)F)ccc1Oc1c(C)cc(C(F)(F)F)cc1C(=O)Nc1ccnc(C(N)=O)c1` [Compound 1039, 4-[[3-methyl-2-[2-(trideuteriomethoxy)-4-(trifluoromethoxy)phenoxy]-5-(trifluoromethyl)benzoyl]amino]pyridine-2-carboxamide] to `COc1c(Oc2cc3c(c(F)c2C(=O)Nc2ccnc(C(N)=O)c2)OCC(C)(C)O3)ccc(OC(F)(F)F)c1F` [Compound 1040, 4-(5-fluoro-7-(3-fluoro-2-methoxy-4-(trifluoromethoxy)phenoxy)-2,2-dimethyl-2,3-dihydrobenzo[b][1,4]dioxine-6-carboxamido)picolinamide], the IC50 falls from greater than 3000 nM to 6 nM. The second is the more potent here.

`COc1c(Oc2cc3c(c(F)c2C(=O)Nc2ccnc(C(N)=O)c2)OC(C)(C)CO3)ccc(OC(F)(F)F)c1F` [Compound 1041, 4-(5-fluoro-7-(3-fluoro-2-methoxy-4-(trifluoromethoxy)phenoxy)-3,3-dimethyl-2,3-dihydrobenzo[b][1,4]dioxine-6-carboxamido)picolinamide] gave an IC50 of 38 nM.
